According to patent publication US20050063940A1, “Bioadhesive agent” (priority 2002, published 2005):

Experiment: Cross-over study of drug A blood levels with 1% Softigen or 1% Labrasol formulation
Design: species or system rabbits
Details: rabbit, in vivo
Method: In a cross-over study, 4 rabbits received drug A in a formulation containing 1% Softigen® (Sasol GmbH, Germany) (n=4) and 1% Labrasol® (Gattefosse, France) (n=4) and were sampled for blood samples after 0, 2, 5, 10, 15, 30, 45 and 60 min.

macrogol-6-glycerol-caprylocaprate [PEG6-CCG]
tmax: 6 min
